Patent US6083964A, “Optical resolution of racemic aminoalkylpyridine anticonvulsants and (+) aminoalkylpyridine enantiomers as highly potent orally effective anticonvulsant drugs and excitatory amino acid antagonists” (K and K Biosciences, Inc., priority 1999, dated 2000)

Tests used:
[1] = test system: pentylenetetrazol (Metrazole) seizure threshold in mice; assay: Timed intravenous Metrazol (PTZ) seizure threshold test in mice, i.p.; format: in vivo, mouse; conditions: for time to twitch: control 33.03; for PTZ dose for the clonus component: control 37.60; for time to clonus: control 39.71
Excerpt: A compound that is active in the MES test and prevents seizure spread, can lower seizure threshold at the same time. Such a compound would have proconvulsant activity while at the same time prevent generalized tonic seizures. […] The timed intravenous pentylenetetrazol (Metrazol) seizure threshold test in mice identifies those MES compounds with proconvulsant potential.
Mice were given the (+) and (-) enantiomers, compounds 1 and 2 in Table 1, intraperitoneally at the ED50 and TD50. At the time of maximal MES activity, an intravenous infusion of 0.5% heparinized solution of pentylenetetrazol (PT2) (0.34 ml/min) was started. The time to the appearance of the first myoclonic jerk (twitch) and the subsequent sustained clonic seizure (clonus) were the measured endpoints. Results were obtained for groups of ten treated and ten saline control mice and converted to the dose in mg/kg of PTZ necessary to produce the two endpoints.
Experiments were performed using three doses of 0, 36 and 149 mg/kg on each of 10 animals per dosage group. The time to "twitch" and the time to "clonus", the two components of the seizure elicited by the infusion of metrazol, were observed.

[2] = test system: hippocampal kindled rats; assay: Hippocampal kindled rat model, i.p.; format: in vivo; set-up: key to Seizure Score ± S.E.M.: Racine seizure class scale; class 5 = rearing and falling; conditions: for seizure score and afterdischarge duration (in words): hippocampal kindled rat
Excerpt: "Kindling" refers to the process whereby repeated administration of an initially subconvulsive electrical stimulus results in progressive intensification of epileptic discharge culminating in a generalized seizure. Kindling can be induced by electrical stimulation of many sites in the brain, especially in "limbic" areas, which include amygdala, hippocampus, and entorhinal cortex [Racine, R., Neurosurgery, 3, 234-252 (1978)]. Kindling is reliably produced by a one second train of 60 Hz square wave stimuli of one millisecond duration at current levels which initially produce only a slight afterdischarge (AD), but no behavioral response. Repeated stimulation, typically once daily, results in a progressive increase in AD amplitude, duration and complexity with subsequent spread to other brain areas culminating in a fully generalized motor seizure. [Racine, R. J. and Zaide, J., In "Mechanisms, the Continuing Evolution of the Limbic System Concept" (K. E. Livingston and O. Hornykiewicz, eds.), Plenum Press, pp. 457-493, 1978.
The development of kindling in the rat has been characterized by five (1 to 5) behavioral and electrographic "classes". The behavior in classes 1 (facial clonus) and 2 (head nodding) mimics that found in human complex partial seizures; the behavior in other classes would be consistent with limbic seizures evolving to generalized motor seizures. An animal is considered to be fully kindled once the enhanced sensitivity has developed, as evidenced by a class 5 seizure (rearing and falling).
The (+) AAP enantiomer, compound 1 in Table 1, was tested in the hippocampal kindled rat, by the i.p. route. […]
The (-) AAP enantiomer, compound 2 in Table 1, was also tested in the hippocampal kindled rat, by the i.p. route.

[3] = test system: maximal electroshock seizure (MES) in rats; assay: Maximal electroshock seizure (MES) test, rats, p.o.; format: in vivo, rat (Sprague-Dawley); conditions: rat, p.o., listed as (1) (+) Enantiomer
Excerpt: The (+) AAP enantiomers obtained by optical resolution of racemic AAPs and the resulting highly orally effective anticonvulsant compositions of this invention are useful in the treatment of convulsive disorders. […] A series of (+) AAP enantiomers and (-) AAP enantiomers of this invention has been evaluated for anticonvulsant activity by the intraperitoneal (i.p.) and by the oral (p.o.) route using two standard seizure models in the mouse and in the rat, the maximal electroshock seizure (MES) test and the subcutaneous pentylenetetrazol (Metrazole) seizure threshold (scMet) test. […] The following Table 2 presents the results of these anticonvulsant tests with respect to several (+) and (-) AAP enantiomeric compounds derived from optical resolution of racemic AAPs of the present invention. This Table 2 identifies the specific compounds tested by their chemical name and provides the test model, the route of administration, the animal species used, and the anticonvulsant activity and toxicity in terms of ED50 and TD50 values, (the median effective and toxic dose respectively), when intraperitoneally administered to mice, and when orally administered to rats. The Maximal Electroshock Seizure Test (MES): Maximal electroshock seizures are elicited with a 60 Hz alternating current of 50 mA intensity in mice and about 150 mA intensity in rats (5-7 times that necessary to elicit minimal electroshock seizures), delivered for 0.2 sec via corneal electrodes. A drop of 0.9% saline is instilled in the eye prior to application of the electrodes in order to […]. Abolition of the hind limb tonic extension component of the seizure is defined as protection and results are expressed as number of animals protected/number of animals tested. The Subcutaneous Pentylenetetrazol (Metrazole) Seizure Threshold Test (scMet): A 0.5% solution of 85 mg/kg of pentylenetetrazol is administered subcutaneously in the posterior midline 30 minutes or 4 hours after drug administration to the animal. […] This species will be the subject of the complete anticonvulsant quantification test evaluation as described above, but after oral (gavage) administration of the candidate compound.

For `CC(Nc1ccc(Cl)cc1)c1ccncc1` (single isomer, unassigned; (+)) [Compound 1, (+) N-(4-Chlorophenyl)-1-(4-pyridyl)ethylamine], the time to twitch ([1]; 36 mg/kg dosage group) was 34.91 s, the “PTZ dose for the clonus component” value ([1]; 36 mg/kg dosage group) was 46.84 mg/kg and the time to clonus ([1]; 36 mg/kg dosage group) was 48.56 s. For the same compound, the “PTZ dose for the twitch component” value ([1]; 149 mg/kg dosage group, control 31.23) was 33.31 mg/kg, the time to twitch ([1]; 149 mg/kg dosage group) was 35.01 s and the “PTZ dose for the clonus component” value ([1]; 149 mg/kg dosage group) was 74.13 mg/kg. The time to clonus ([1]; 149 mg/kg dosage group) was 77.56 s, the “amount of PTZ required to produce the twitch and clonus and time to twitch and time to clonus (in words)” value ([1]; mice) was “significantly raised” and the “Afterdischarge Duration (sec) ± S.E.M.” value ([2]; 25 mg/kg i.p., 15 min) was 76.63 ± 7.34 s. For the same compound, the “Seizure Score ± S.E.M.” value ([2]; 25 mg/kg i.p., 15 min) was 4.63 ± 0.18, the “# Protected/# Tested” value ([2]; 25 mg/kg i.p., 45 min) was 2/8 and the “Afterdischarge Duration (sec) ± S.E.M.” value ([2]; 25 mg/kg i.p., 45 min) was 54.63 ± 12.54 s. For the same compound, the “Seizure Score ± S.E.M.” value ([2]; 25 mg/kg i.p., 45 min) was 3.75 ± 0.65, the “Afterdischarge Duration (sec) ± S.E.M.” value ([2]; 25 mg/kg i.p., 75 min) was 62.75 ± 10.46 s and the “Seizure Score ± S.E.M.” value ([2]; 25 mg/kg i.p., 75 min) was 4.13 ± 0.48. The “Afterdischarge Duration (sec) ± S.E.M.” value ([2]; 25 mg/kg i.p., 105 min) was 74.75 ± 6.44 s, the “Seizure Score ± S.E.M.” value ([2]; 25 mg/kg i.p., 105 min) was 5.00 ± 0.00 and the “Seizure Score ± S.E.M.” value ([2]; 25 mg/kg i.p., 135 min) was 4.50 ± 0.19. For the same compound, the “Afterdischarge Duration (sec) ± S.E.M.” value ([2]; 50 mg/kg i.p., 15 min) was 56.43 ± 7.60 s, the “Seizure Score ± S.E.M.” value ([2]; 50 mg/kg i.p., 15 min) was 3.75 ± 0.53 and the “# Protected/# Tested” value ([2]; 50 mg/kg i.p., 45 min) was 2/8. The “Afterdischarge Duration (sec) ± S.E.M.” value ([2]; 50 mg/kg i.p., 45 min) was 63.38 ± 10.75 s, the “Seizure Score ± S.E.M.” value ([2]; 50 mg/kg i.p., 45 min) was 4.13 ± 0.40 and the “Afterdischarge Duration (sec) ± S.E.M.” value ([2]; 50 mg/kg i.p., 75 min) was 63.14 ± 6.38 s. For the same compound, the “Seizure Score ± S.E.M.” value ([2]; 50 mg/kg i.p., 75 min) was 4.71 ± 0.18, the “Afterdischarge Duration (sec) ± S.E.M.” value ([2]; 50 mg/kg i.p., 105 min) was 74.57 ± 11.58 s and the “Seizure Score ± S.E.M.” value ([2]; 50 mg/kg i.p., 105 min) was 4.71 ± 0.18. The “Afterdischarge Duration (sec) ± S.E.M.” value ([2]; 50 mg/kg i.p., 135 min) was 61.43 ± 12.97 s, the “Seizure Score ± S.E.M.” value ([2]; 50 mg/kg i.p., 135 min) was 4.00 ± 0.69 and the “Afterdischarge Duration (sec) ± S.E.M.” value ([2]; 50 mg/kg i.p., 165 min) was 73.14 ± 9.41 s. The “Seizure Score ± S.E.M.” value ([2]; 50 mg/kg i.p., 165 min) was 4.57 ± 0.20, the “Afterdischarge Duration (sec) ± S.E.M.” value ([2]; 75 mg/kg i.p., 15 min) was 63.29 ± 6.70 s and the “Seizure Score ± S.E.M.” value ([2]; 75 mg/kg i.p., 15 min, * significantly different from control) was 2.86 ± 0.59. For the same compound, the “# Protected/# Tested” value ([2]; 75 mg/kg i.p., 45 min) was 5/7, the “Afterdischarge Duration (sec) ± S.E.M.” value ([2]; 75 mg/kg i.p., 45 min) was 55.43 ± 10.39 s and the “Seizure Score ± S.E.M.” value ([2]; 75 mg/kg i.p., 45 min, * significantly different from control) was 2.43 ± 0.69. For the same compound, the “Afterdischarge Duration (sec) ± S.E.M.” value ([2]; 75 mg/kg i.p., 75 min) was 74.57 ± 10.36 s, the “Seizure Score ± S.E.M.” value ([2]; 75 mg/kg i.p., 75 min, * significantly different from control) was 2.86 ± 0.59 and the “Afterdischarge Duration (sec) ± S.E.M.” value ([2]; 75 mg/kg i.p., 105 min) was 68.57 ± 5.52 s. The “Seizure Score ± S.E.M.” value ([2]; 75 mg/kg i.p., 105 min, * significantly different from control) was 3.86 ± 0.34, the “Afterdischarge Duration (sec) ± S.E.M.” value ([2]; 75 mg/kg i.p., 135 min) was 65.00 ± 4.12 s and the “Seizure Score ± S.E.M.” value ([2]; 75 mg/kg i.p., 135 min) was 4.14 ± 0.26. The “Afterdischarge Duration (sec) ± S.E.M.” value ([2]; 100 mg/kg i.p., 15 min) was 63.43 ± 11.37 s, the “Seizure Score ± S.E.M.” value ([2]; 100 mg/kg i.p., 15 min, Table 3 value * significantly different from control) was 2.00 ± 0.69 and the “# Protected/# Tested” value ([2]; 100 mg/kg i.p., 45 min) was 6/7. For the same compound, the “Afterdischarge Duration (sec) ± S.E.M.” value ([2]; 100 mg/kg i.p., 45 min) was 63.29 ± 4.76 s, the “Seizure Score ± S.E.M.” value ([2]; 100 mg/kg i.p., 45 min, Table 3 value * significantly different from control) was 2.00 ± 0.58 and the “Afterdischarge Duration (sec) ± S.E.M.” value ([2]; 100 mg/kg i.p., 75 min) was 75.43 ± 9.70 s. The “Seizure Score ± S.E.M.” value ([2]; 100 mg/kg i.p., 75 min, Table 3 value * significantly different from control) was 2.29 ± 0.61, the “Afterdischarge Duration (sec) ± S.E.M.” value ([2]; 100 mg/kg i.p., 105 min) was 71.00 ± 5.35 s and the “Seizure Score ± S.E.M.” value ([2]; 100 mg/kg i.p., 105 min, Table 3 value * significantly different from control) was 2.29 ± 0.71. The ED50 ([2]; Rattus norvegicus, ip, 0.75 h, hippocampal kindled rats, 45 min, 95% C.I. printed b332) was 54.9 mg/kg, the Slope ([2]; dose response, hippocampal kindled rats, i.p., 45 min) was 2.93 ± 1.16 and the “seizure score and afterdischarge duration (in words)” value ([2]; i.p.) was “significantly reduced seizure score and afterdischarge duration and the effect was dose-dependent”. For the same compound, the “seizure score and afterdischarge duration (in words)” value ([2]; i.p., listed as (+) N-(4-chlorophenyl)-1-(4-pyridyl)ethylamine) was “significantly reduced from that of the control”, the ED50 ([3]; MES test) was 10.2 mg/kg and the “P.I. (protective index, TD50/ED50)” value ([3]; MES) was greater than 49.1.
